Results from ChEMBL document CHEMBL4190297, “Cafestol, a Bioactive Substance in Coffee, Has Antidiabetic Properties in KKAy Mice” (J Nat Prod, 2017).
Calls of active or inactive are those of the source. The rule behind the calls is not given here.

Experiments:
[1] = organism: Mus musculus; test: Toxicity in KK-Ay diabetic mouse model assessed as increase in body weight at 1.1 mg added daily to normal chow pellets for 8 weeks; type: organism-based; conditions: in vivo, po, 1344 h
[2] = organism: Mus musculus; test: Antidiabetic activity in KK-Ay diabetic mouse model assessed as reduction in plasma glucagon levels at 0.4 mg added daily to normal chow pellets for 10 weeks relative to control by radioimmunoassay; type: functional; set-up: scale not given: the % may be the effect or the level left
[3] = organism: Mus musculus; test: Antidiabetic activity in KK-Ay diabetic mouse model assessed as increase in HDL levels at 0.4 to 1.1 mg added daily to normal chow pellets for 10 weeks by colorimetric analysis; type: functional, organism-based
[4] = organism: Mus musculus; test: Antidiabetic activity in KK-Ay diabetic mouse model assessed as decrease in plasma triglycerides level at 0.14 to 1.1 mg added daily to normal chow pellets for 10 weeks by colorimetric analysis; type: functional, organism-based
[5] = organism: Mus musculus; test: Induction of […] glucose-stimulated insulin secretion in pancreatic islets isolated from KK-Ay diabetic mouse model at 0.4 mg added daily to normal chow pellets for 10 weeks followed by glucose stimulation of isolated pancreatic islets for 1 hr by radioimmunoassay relative to control; type: functional
[6] = organism: Mus musculus; test: Antidiabetic activity in KK-Ay diabetic mouse model assessed as increase in INSR mRNA expression levels in liver tissue at 1.1 mg added daily to normal chow pellets for 10 weeks by qRT-PCR analysis; type: functional, organism-based
[7] = organism: Mus musculus; test: Effect on Mtor mRNA expression levels in adipose tissue of KK-Ay diabetic mouse model at 0.4 to 1.1 mg added daily to normal chow pellets for 10 weeks by qRT-PCR analysis; type: functional, organism-based
[8] = organism: Mus musculus; test: Effect on InsR mRNA expression levels in adipose tissue of KK-Ay diabetic mouse model at 0.4 to 1.1 mg added daily to normal chow pellets for 10 weeks by qRT-PCR analysis; type: functional, organism-based
[9] = organism: Mus musculus; test: Effect on Akt2 mRNA expression levels in adipose tissue of KK-Ay diabetic mouse model at 0.4 to 1.1 mg added daily to normal chow pellets for 10 weeks by qRT-PCR analysis; type: functional, organism-based
[10] = organism: Mus musculus; test: Effect on Abca1 mRNA expression levels in adipose tissue of KK-Ay diabetic mouse model at 0.4 to 1.1 mg added daily to normal chow pellets for 10 weeks by qRT-PCR analysis; type: functional, organism-based
[11] = organism: Mus musculus; test: Effect on Sirt1 mRNA expression levels in muscle of KK-Ay diabetic mouse model at 0.4 to 1.1 mg added daily to normal chow pellets for 10 weeks by qRT-PCR analysis; type: functional, organism-based
[12] = organism: Mus musculus; test: Effect on PPARgamma mRNA expression levels in muscle of KK-Ay diabetic mouse model at 0.4 to 1.1 mg added daily to normal chow pellets for 10 weeks by qRT-PCR analysis; type: functional, organism-based
[13] = organism: Mus musculus; test: Effect on PPARGC1alpha mRNA expression levels in muscle of KK-Ay diabetic mouse model at 0.4 to 1.1 mg added daily to normal chow pellets for 10 weeks by qRT-PCR analysis; type: functional, organism-based
[14] = organism: Mus musculus; test: Effect on JNK1 mRNA expression levels in muscle of KK-Ay diabetic mouse model at 0.4 to 1.1 mg added daily to normal chow pellets for 10 weeks by qRT-PCR analysis; type: functional, organism-based
[15] = organism: Mus musculus; test: Effect on Hprt1 mRNA expression levels in muscle of KK-Ay diabetic mouse model at 0.4 to 1.1 mg added daily to normal chow pellets for 10 weeks by qRT-PCR analysis; type: functional, organism-based
[16] = organism: Mus musculus; test: Effect on G6PD mRNA expression levels in muscle of KK-Ay diabetic mouse model at 0.4 to 1.1 mg added daily to normal chow pellets for 10 weeks by qRT-PCR analysis; type: functional, organism-based
[17] = organism: Mus musculus; test: Effect on FABP4 mRNA expression levels in muscle of KK-Ay diabetic mouse model at 0.4 to 1.1 mg added daily to normal chow pellets for 10 weeks by qRT-PCR analysis; type: functional, organism-based
[18] = organism: Mus musculus; test: Effect on CD36 mRNA expression levels in muscle of KK-Ay diabetic mouse model at 0.4 to 1.1 mg added daily to normal chow pellets for 10 weeks by qRT-PCR analysis; type: functional, organism-based
[19] = organism: Mus musculus; test: Effect on PPARGC1alpha mRNA expression levels in liver of KK-Ay diabetic mouse model at 0.4 to 1.1 mg added daily to normal chow pellets for 10 weeks by qRT-PCR analysis; type: functional, organism-based
[20] = organism: Mus musculus; test: Effect on PKCdelta mRNA expression levels in liver of KK-Ay diabetic mouse model at 0.4 to 1.1 mg added daily to normal chow pellets for 10 weeks by qRT-PCR analysis; type: functional, organism-based
[21] = organism: Mus musculus; test: Effect on Pi3K mRNA expression levels in liver of KK-Ay diabetic mouse model at 0.4 to 1.1 mg added daily to normal chow pellets for 10 weeks by qRT-PCR analysis; type: functional, organism-based
[22] = organism: Mus musculus; test: Effect on Mtor mRNA expression levels in liver of KK-Ay diabetic mouse model at 0.4 to 1.1 mg added daily to normal chow pellets for 10 weeks by qRT-PCR analysis; type: functional, organism-based
[23] = organism: Mus musculus; test: Effect on GYS2 mRNA expression levels in liver of KK-Ay diabetic mouse model at 0.4 to 1.1 mg added daily to normal chow pellets for 10 weeks by qRT-PCR analysis; type: functional, organism-based
[24] = organism: Mus musculus; test: Effect on Gcgr mRNA expression levels in liver of KK-Ay diabetic mouse model at 0.4 to 1.1 mg added daily to normal chow pellets for 10 weeks by qRT-PCR analysis; type: functional, organism-based
[25] = organism: Mus musculus; test: Effect on AMPKalpha2 mRNA expression levels in liver of KK-Ay diabetic mouse model at 0.4 to 1.1 mg added daily to normal chow pellets for 10 weeks by qRT-PCR analysis; type: functional, organism-based
[26] = organism: Mus musculus; test: Effect on Akt2 mRNA expression levels in liver of KK-Ay diabetic mouse model at 0.4 to 1.1 mg added daily to normal chow pellets for 10 weeks by qRT-PCR analysis; type: functional, organism-based
[27] = organism: Mus musculus; test: Effect on Acaca mRNA expression levels in liver of KK-Ay diabetic mouse model at 0.4 to 1.1 mg added daily to normal chow pellets for 10 weeks by qRT-PCR analysis; type: functional, organism-based
[28] = organism: Mus musculus; test: Effect on water-fat fraction in liver of KK-Ay diabetic mouse model at 0.4 to 1.1 mg added daily to normal chow pellets for 10 weeks by MR spectroscopic analysis; type: functional, organism-based
[29] = organism: Mus musculus; test: Effect on triglyceride concentration in liver of KK-Ay diabetic mouse model at 0.4 to 1.1 mg added daily to normal chow pellets for 10 weeks; type: functional, organism-based
[30] = organism: Mus musculus; test: Effect on PKCdelta mRNA expression levels in adipose tissue of KK-Ay diabetic mouse model at 0.4 to 1.1 mg added daily to normal chow pellets for 10 weeks by qRT-PCR analysis; type: functional, organism-based
[31] = organism: Mus musculus; test: Effect on PPARGC1alpha mRNA expression levels in adipose tissue of KK-Ay diabetic mouse model at 0.4 to 1.1 mg added daily to normal chow pellets for 10 weeks by qRT-PCR analysis; type: functional, organism-based
[32] = organism: Mus musculus; test: Effect on PPARgamma mRNA expression levels in adipose tissue of KK-Ay diabetic mouse model at 0.4 to 1.1 mg added daily to normal chow pellets for 10 weeks by qRT-PCR analysis; type: functional, organism-based
[33] = organism: Mus musculus; test: Effect on Sirt1 mRNA expression levels in adipose tissue of KK-Ay diabetic mouse model at 0.4 to 1.1 mg added daily to normal chow pellets for 10 weeks by qRT-PCR analysis; type: functional, organism-based

## C[C@@]12CCc3occc3[C@H]1CC[C@@]13C[C@H](CC[C@H]12)[C@@](O)(CO)C3
[1]
  Activity: > 3 g
[2]
  Activity: 28%
[3]
  Activity: inactive
[4]
  Activity: inactive
[5]
  Activity: 87%
[6]
  Activity: Active
[7]
  Activity: inactive
[8]
  Activity: inactive
[9]
  Activity: inactive
[10]
  Activity: inactive
[11]
  Activity: inactive
[12]
  Activity: inactive
[13]
  Activity: inactive
[14]
  Activity: inactive
[15]
  Activity: inactive
[16]
  Activity: inactive
[17]
  Activity: inactive
[18]
  Activity: inactive
[19]
  Activity: inactive
[20]
  Activity: inactive
[21]
  Activity: inactive
[22]
  Activity: inactive
[23]
  Activity: inactive
[24]
  Activity: inactive
[25]
  Activity: inactive
[26]
  Activity: inactive
[27]
  Activity: inactive
[28]
  Activity: inactive
[29]
  Activity: inactive
[30]
  Activity: inactive
[31]
  Activity: inactive
[32]
  Activity: inactive
[33]
  Activity: inactive
